What was measured:
Settings in all cases: 48 h
P12-Ichikawa [1] = test: AUC of viability dose-response curve (% viability x log10 dose units); higher = less sensitive
In short: (§1)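 Seeding of medium-adapted leukemia cells was at 500 or 1000 cells/well in 1536-well plates, followed by 48 h at 37°C with library compounds in DMSO at 11 threefold doses from 47 μM to 0.79 nM. CellTiter-Glo One luminescence was normalised per plate to DMSO and cell-free wells and fitted as a four-parameter log-logistic function of log10 dose. Area under the curve was integrated by trapezoidal rule, with curves exceeding full viability scaled and curves failing quality control removed.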

SEM cells [2] = test: as above
In short: as §1

NOMO1 [3] = test: as above
In short: as §1

P12-Ichikawa [4] = test: cell viability relative to DMSO control; higher = less cytotoxic
In short: (§2)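 Library compounds in DMSO were pin-dosed in an 11-point threefold series (47 μM to 0.79 nM) onto leukemia cells in 1536-well plates (5 μl). Plates held 500 cells/well of NOMO1 or SEM or 1000 cells/well of P12-Ichikawa, each adapted for at least four passages in each medium. Luminescence was read with CellTiter-Glo One after 48 h at 37°C. Viability means the per-plate percentage relative to DMSO wells, using cell-free wells as background.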

SEM cells [5] = test: as above
In short: as §2

NOMO1 [6] = test: as above
In short: as §2

NC/1=N/C(=O)C2=C([NH]C=C2CCC3=CC=C(C=C3)C(=O)N[C@@H](CCC(O)=O)C(O)=O)N1
AUC of viability dose-response curve
Settings	NOMO1 [3]	P12-Ichikawa [1]	SEM cells [2]
HPLM + 10% dialyzed FBS	358	372	355
RPMI 5 mM glucose + 10% FBS	446	408	444
RPMI 5 mM glucose + 10% dialyzed FBS	398	409	371

cell viability [%]
Settings	NOMO1 [6]	P12-Ichikawa [4]	SEM cells [5]
HPLM + 10% dialyzed FBS, 0.000781 µM	107	106	118
HPLM + 10% dialyzed FBS, 0.00234 µM	99.2	109	103
HPLM + 10% dialyzed FBS, 0.00702 µM	110	106	107
HPLM + 10% dialyzed FBS, 0.0211 µM	104	107	115
HPLM + 10% dialyzed FBS, 0.0632 µM	107	99.8	114
HPLM + 10% dialyzed FBS, 0.19 µM	116	114	110
HPLM + 10% dialyzed FBS, 0.569 µM	78.2	105	80.2
HPLM + 10% dialyzed FBS, 1.71 µM	46.2	64.4	45.7
HPLM + 10% dialyzed FBS, 5.12 µM	41.8	35.4	39.4
HPLM + 10% dialyzed FBS, 15.4 µM	38.8	29.3	38.3
HPLM + 10% dialyzed FBS, 46.1 µM	29.7	28.2	35.8
RPMI 5 mM glucose + 10% FBS, 0.000781 µM	88	102	98.3
RPMI 5 mM glucose + 10% FBS, 0.00234 µM	92.2	113	105
RPMI 5 mM glucose + 10% FBS, 0.00702 µM	103	108	103
RPMI 5 mM glucose + 10% FBS, 0.0211 µM	94.2	107	107
RPMI 5 mM glucose + 10% FBS, 0.0632 µM	96.2	110	99.7
RPMI 5 mM glucose + 10% FBS, 0.19 µM	94.4	108	107
RPMI 5 mM glucose + 10% FBS, 0.569 µM	93.9	96.9	91.9
RPMI 5 mM glucose + 10% FBS, 1.71 µM	112	90	100
RPMI 5 mM glucose + 10% FBS, 5.12 µM	92.5	64.5	83.2
RPMI 5 mM glucose + 10% FBS, 15.4 µM	78.9	54.9	73.9
RPMI 5 mM glucose + 10% FBS, 46.1 µM	75.5	47.5	69.8
RPMI 5 mM glucose + 10% dialyzed FBS, 0.000781 µM	104	96.5	98.8
RPMI 5 mM glucose + 10% dialyzed FBS, 0.00234 µM	91.4	106	95
RPMI 5 mM glucose + 10% dialyzed FBS, 0.00702 µM	96	103	100
RPMI 5 mM glucose + 10% dialyzed FBS, 0.0211 µM	105	103	97.3
RPMI 5 mM glucose + 10% dialyzed FBS, 0.0632 µM	103	104	97
RPMI 5 mM glucose + 10% dialyzed FBS, 0.19 µM	104	104	107
RPMI 5 mM glucose + 10% dialyzed FBS, 0.569 µM	103	99.1	109
RPMI 5 mM glucose + 10% dialyzed FBS, 1.71 µM	86	88.4	52.2
RPMI 5 mM glucose + 10% dialyzed FBS, 5.12 µM	40.5	56.1	36.2
RPMI 5 mM glucose + 10% dialyzed FBS, 15.4 µM	40.1	48.1	32.3
RPMI 5 mM glucose + 10% dialyzed FBS, 46.1 µM	38.3	44.4	23.3

CCCCC(F)(F)[C@@]1(O)CC[C@H]2[C@@H](CC(=O)[C@@H]2CCCCCCC(=O)O)O1
AUC of viability dose-response curve
Settings	NOMO1 [3]	P12-Ichikawa [1]	SEM cells [2]
HPLM + 10% dialyzed FBS	446	451	455
RPMI 5 mM glucose + 10% FBS	447	444	459
RPMI 5 mM glucose + 10% dialyzed FBS	411	456	456

cell viability [%]
Settings	NOMO1 [6]	P12-Ichikawa [4]	SEM cells [5]
HPLM + 10% dialyzed FBS, 0.000781 µM	–	128	120
HPLM + 10% dialyzed FBS, 0.00234 µM	–	123	124
HPLM + 10% dialyzed FBS, 0.00702 µM	–	120	123
HPLM + 10% dialyzed FBS, 0.0211 µM	–	124	121
HPLM + 10% dialyzed FBS, 0.0632 µM	–	122	112
HPLM + 10% dialyzed FBS, 0.19 µM	–	116	110
HPLM + 10% dialyzed FBS, 0.569 µM	–	117	118
HPLM + 10% dialyzed FBS, 1.71 µM	–	103	116
HPLM + 10% dialyzed FBS, 5.12 µM	–	108	101
HPLM + 10% dialyzed FBS, 15.4 µM	–	111	91.6
HPLM + 10% dialyzed FBS, 46.1 µM	–	113	98.6
RPMI 5 mM glucose + 10% FBS, 0.000781 µM	123	–	–
RPMI 5 mM glucose + 10% FBS, 0.00234 µM	123	–	–
RPMI 5 mM glucose + 10% FBS, 0.00702 µM	126	–	–
RPMI 5 mM glucose + 10% FBS, 0.0211 µM	115	–	–
RPMI 5 mM glucose + 10% FBS, 0.0632 µM	118	–	–
RPMI 5 mM glucose + 10% FBS, 0.19 µM	117	–	–
RPMI 5 mM glucose + 10% FBS, 0.569 µM	115	–	–
RPMI 5 mM glucose + 10% FBS, 1.71 µM	108	–	–
RPMI 5 mM glucose + 10% FBS, 5.12 µM	121	–	–
RPMI 5 mM glucose + 10% FBS, 15.4 µM	111	–	–
RPMI 5 mM glucose + 10% FBS, 46.1 µM	103	–	–
